We go through four compounds from patent publication US20110002859A1, “CHEWING GUM CONTAINING EUCALYPTUS EXTRACT” (LOTTE CO., LTD., priority 2008, published 2011).

In brackets after ≈: the same amount, converted by molar mass.

A word on the MIC: it is the lowest concentration found to suppress growth.

In assay [1] the test system is Capnocytophaga ochracea ATCC33596. As to the kind of experiment: In vitro antibacterial activity, minimum inhibitory concentration (MIC). To be noted: 37° C., anaerobic, 24 to 48 hours, turbidity 550 nm; read-out: MIC, bacterial strain d. It is filed as cell-based. How it is done: (§1) In vitro antibacterial activities of Macrocarpal A, macrocarpal B, and macrocarpal C were evaluated according to the following procedure. First, to 25 ml of a medium, added were 2.5 ml of various pre-cultured periodontopathic bacteria described below, and the whole was mixed well. A sample solution was prepared by diluting in two stages a sample stock solution on a 96-well plate by using a diluent. Within each well of the 96-well plate, 100 μl of the sample solution and 100 μl of a bacterial solution were mixed, and cultivated at 37° C. under an anaerobic condition for 24 to 48 hours. The turbidity (550 nm) of each well was measured with a microplate reader, the growth of the bacterium was assessed, and its minimum inhibitory concentration (MIC) was determined. […] (Used Bacterial Strain) d: Capnocytophaga ochracea ATCC33596

The subject of assay [2] is Prevotella melaninogenica ATCC25845. The description is as above. It is filed as cell-based. Particulars: 37° C., anaerobic, 24 to 48 hours, turbidity 550 nm; read-out: MIC, bacterial strain c. How it is done:
as §1, with “c: Prevotella melaninogenica ATCC25845” for “d: Capnocytophaga ochracea ATCC33596”

In assay [3] the test system is Prevotella intermedia ATCC25611. Described as above. It counts as cell-based. To be noted: 37° C., anaerobic, 24 to 48 hours, turbidity 550 nm; read-out: MIC, bacterial strain b. How it is done:
as §1, with “b: Prevotella intermedia ATCC25611” for “d: Capnocytophaga ochracea ATCC33596”

The test system of assay [4] is periodontopathic bacteria. As to the kind of experiment: In vitro growth prevention of all tested periodontopathic bacteria. It counts as cell-based. To be noted: all four strains of Table 1. The procedure: In vitro antibacterial activities of Macrocarpal A, macrocarpal B, and macrocarpal C were evaluated according to the following procedure. First, to 25 ml of a medium, added were 2.5 ml of various pre-cultured periodontopathic bacteria described below, and the whole was mixed well. A sample solution was prepared by diluting in two stages a sample stock solution on a 96-well plate by using a diluent. Within each well of the 96-well plate, 100 μl of the sample solution and 100 μl of a bacterial solution were mixed, and cultivated at 37° C. under an anaerobic condition for 24 to 48 hours. The turbidity (550 nm) of each well was measured with a microplate reader, the growth of the bacterium was assessed, and its minimum inhibitory concentration (MIC) was determined.

In assay [5] the test system is Porphyromonas gingivalis ATCC33277. As to the kind of experiment: In vitro antibacterial activity, minimum inhibitory concentration (MIC). It counts as cell-based. Particulars: 37° C., anaerobic, 24 to 48 hours, turbidity 550 nm; read-out: MIC, bacterial strain a. How it is done:
as §1, with “a: Porphyromonas gingivalis ATCC33277” for “d: Capnocytophaga ochracea ATCC33596”

The subject of assay [6] is periodontopathic bacteria. Particulars: background art; cited from earlier work.

Consider `CC(C)C[C@@H](c1c(O)c(C=O)c(O)c(C=O)c1O)[C@@]1(C)CC[C@@H]2[C@@H]1[C@H]1[C@@H](CC[C@@]2(C)O)C1(C)C` [Macrocarpal A, macrocarpal A], for which the minimal inhibitory concentration (MIC) was 0.39 µg/mL (≈ 0.825 µM) in assay [1], 0.78 µg/mL (≈ 1.65 µM) in assay [2], 0.195 µg/mL (≈ 0.413 µM) in assay [3] and 0.195 µg/mL (≈ 0.413 µM) in assay [5]. In addition, the “concentration capable of preventing periodontopathic bacteria from growing up” value (shortened to “concentration capable”) in assay [4] turned out to be 0.78 µg/mL.

For `CC(C)C[C@H](c1c(O)c(C=O)c(O)c(C=O)c1O)[C@@]1(C)CC[C@@H]2[C@@H]1[C@H]1[C@@H](CC[C@@]2(C)O)C1(C)C` [Macrocarpal B, macrocarpal B], the MIC in assay [1] was 1.56 µg/mL (≈ 3.3 µM); in assay [2] it was 3.13 µg/mL (≈ 6.62 µM); in assay [3], 1.58 µg/mL (≈ 3.34 µM); in assay [5] it was 0.78 µg/mL (≈ 1.65 µM). For the same compound, in assay [4], the “concentration capable” value worked out at 3.13 µg/mL.

Regarding `C=C1CC[C@@H]2[C@H]([C@H]3[C@H]1CC[C@]3(C)[C@@H](CC(C)C)c1c(O)c(C=O)c(O)c(C=O)c1O)C2(C)C` [Macrocarpal C, macrocarpal C], the minimal inhibitory concentration (MIC) in assay [1] stood at 0.39 µg/mL (≈ 0.858 µM); in assay [2], 1.58 µg/mL (≈ 3.48 µM); in assay [3] it was 0.39 µg/mL (≈ 0.858 µM); in assay [5], 0.195 µg/mL (≈ 0.429 µM). Besides, the “concentration capable” value in assay [4] turned out to be 1.58 µg/mL.

In the case of `CC12CCC(CC1)C(C)(C)O2` [cineole], the “antibacterial activities against periodontopathic bacteria” value in assay [6] is reported as “weak antibacterial activities”.
